Reference: US20040071707A1, “Modulation of cell growth” (priority 2000, published 2004)

System: HUVEC
Assay: In vitro endothelial cell proliferation assay
Format: cell-based, Human
Conditions: for effect on anti-kringle 2 (7VPA) induced HUVEC proliferation: HUVEC stimulated with 700 nM (or 1400 nM) 7VPA, simultaneous addition
Procedure: Human umbilical vein endothelial cells (HUVEC) were purchased from Clonetics or isolated from umbilical vein cords by mild collagenase treatment as described and cultured in M199 with Earle's salts (Sigma) with 20% heat inactivated fetal bovine serum (Sigma), 100 IU/mL penicillin 100 μg/mL streptomycin (Gibco), 250 ng/mL fungizone (Gibco), 2 mM glutamine (Gibco), 5 IU/mL heparin (Sigma) and 50 μg/mL ECGS (Technoclone, Vienna, Austria). Human vascular smooth muscle cells (HVSMC) were isolated as described.
3×10^3 cells were plated in 96-well plates and allowed to attach overnight. Growth was arrested by incubation with 100 μL reduced growth medium (M199 with 2% FBS) for 24 h. Thereafter anti-tPA antibodies and other reagents were added to wells. K2P (Reteplase), anti-kringle 2 (7VPA) and anti-finger/EGF antibodies (3VPA and 6VPA) were a gift from Technoclone, Vienna, Austria. Anti-kringle 1 (PAM-2), anti-kringle 2 (ESP1) and anti-protease (374B and ESP2) antibodies were purchased from American Diagnostica, Alpha Labs, UK. D-mannitol and LY294002 were obtained from Sigma. VEGF121 and bFGF were purchased from R&D Systems Inc., UK. Recombinant single chain tPA (rsctPA) was obtained from Boehringher Ingelheim. The mutant alatPA was kindly provided by Prof. Roger Lijnen (Center for Molecular and Vascular Biology, Leuven, Belgium). Aprotinin was purchased from Boehringer Mannheim. The tPA peptides (tPA I and tPA II) corresponding to residues 7-17 and 15-26 respectively were synthesized by the Clinical Sciences Centre peptide synthesis facility at Hammersmith and the ICRF peptide unit. Rp-cAMPS and Lavendustin A were obtained from Calbiochem, UK. After 4 days of incubation cell number was quantified colorimetrically by the addition of 20 μL CellTiter 96 AQueous One Solution Cell Proliferation Assay (Promega) at 492 nm and 620 nm reference filter. Background absorbance was determined with substrate alone and subtracted from all wells.
HUVEC were plated at 1×10^5 cells in 12 well plates overnight. Medium was replaced with reduced growth medium overnight followed by addition of anti-K2 antibody. Control wells contained M199 and 2% FBS alone. After 3 days incubation cells were counted in a hemocytometer.

Row | Compound | effect on anti-kringle 2 (7VPA) induced HUVEC proliferation (4 days) | further results
1 | O=C(O)c1cc(N(Cc2ccccc2O)Cc2cc(O)ccc2O)ccc1O [Lavendustin A, reference compound] | could inhibit | –
2 | Nc1ncnc2c1ncn2[C@@H]1O[C@@H]2CO[P@@](O)(=S)O[C@H]2[C@H]1O [Rp-cAMPS, reference compound] | could inhibit | –
3 | OC[C@@H](O)[C@@H](O)[C@H](O)[C@H](O)CO [mannitol, D-mannitol, reference compound] | – | effect on basal HUVEC/EC growth (substance alone) (M199 with 2% FBS, 4 days, colorimetric): No effect
4 | angiostatin [reference compound] | – | concentration giving 50% inhibition (HUVEC growth, bFGF 10 ng/mL (FIG. 4B)): 45 µg/mL
5 | aprotinin [reference compound] | could not block | –
